Source: US7449190B2 (priority 2002, dated 2008)

Assays:
[1] = tested on: interaction of NP with VP35; type: biochemical, Ebola virus
NP = type: cell-based, Ebola virus
HIV gp160 = type: cell-based

## O=C(N[C@H]1[C@H](OCc2ccccc2)O[C@H](CO)[C@@H](O)[C@@H]1O)OCc1ccccc1 [benzyl Z-b-D-glucosaminide]
[1]
  effect in the in vitro transcription/translation system (NP synthesis or association of NP with VP35 and VP24): without any effect

## CC(=O)N[C@H]1[C@@H](OCc2ccccc2)O[C@H](CO)[C@H](O)[C@@H]1O[C@@H]1O[C@H](CO)[C@H](O)[C@H](O)[C@H]1O [benzyl 2-acetamido-2-deoxy-3-O-b-D-galactopyranosyl-a-D-galactopyranoside]
[1]
  effect in the in vitro transcription/translation system (NP synthesis or association of NP with VP35 and VP24): without any effect

## CC(=O)N[C@H]1[C@H](OCc2ccccc2)O[C@H](CO)[C@@H](O)[C@@H]1O [benzyl 2-acetamido-2-deoxy-b-D-glucopyranoside]
[1]
  effect in the in vitro transcription/translation system (NP synthesis or association of NP with VP35 and VP24): without any effect

## O=C(N[C@H]1[C@@H](OCc2ccccc2)O[C@H](CO)[C@@H](O)[C@@H]1O)OCc1ccccc1 [benzyl Z-a-D-glucosaminide]
[1]
  effect in the in vitro transcription/translation system (NP synthesis or association of NP with VP35 and VP24): without any effect

## CC(=O)N[C@H]1[C@@H](Oc2ccccc2)O[C@H](CO)[C@H](O)[C@@H]1O [phenyl N-acetyl-a-D-galactosaminide]
[1]
  effect in the in vitro transcription/translation system (NP synthesis or association of NP with VP35 and VP24): without any effect

## CCCCCCCCO[C@H]1O[C@H](COC(C)=O)[C@@H](OC(C)=O)[C@H](OC(C)=O)[C@@H]1OC(C)=O [AcManα1-OC8, acetylated Manα1-O-octyl]
[1]
  inhibition of the interaction of NP with VP35: not seen

## CCCCCCCCO[C@H]1O[C@H](CO)[C@@H](O)[C@H](O)[C@@H]1O [Manα1-OC8, mannose α1-O-octyl]
[1]
  dose dependence of inhibition of NP/VP35 interaction: dose-dependent
  inhibition of NP/VP35 interaction when added after translation: did not inhibit
  inhibition of the interaction of NP with VP35: substantially reduced

## tunicamycin
NP
  effect on NP migration (glycosylation) in NP-transfected 293 cells: No effect
  synthesis of NP in NP-transfected 293 cells: unaffected
HIV gp160
  expression of HIV gp160: abolished

## C[C@H]1CCC/C=C/[C@@H]2C[C@H](O)C[C@H]2[C@H](O)/C=C/C(=O)O1 [Brefeldin A]
[1]
  effect in the in vitro transcription/translation system (NP synthesis or association of NP with VP35 and VP24): without any effect

## CC(=O)N[C@H]1[C@@H](OCc2ccccc2)O[C@H](CO)[C@H](O)[C@@H]1O [benzyl 2-acetamido-2-deoxy-a-D-galactopyranoside]
[1]
  effect in the in vitro transcription/translation system (NP synthesis or association of NP with VP35 and VP24): without any effect

## OC[C@H]1NC[C@@H](O)[C@@H](O)[C@@H]1O [deoxymannojirimycin]
NP
  effect on NP migration (glycosylation) in NP-transfected 293 cells: No effect
